Measurements from US5474928A, “Arginine deiminase from a Mycoplasma arginini strain” (Nippon Mining Company, Limited, priority 1989, dated 1995).

Legend:
[1] = target: T1, Mycoplasma arginini (IFO 14476) arginine deiminase (EC 3.5.3.6), present invention, amino acid sequence of FIG. 4 (Mycoplasmopsis arginini, UniProt P23793); assay: Km determination by Lineweaver-Burk plot analysis, citrulline formation assay; format: biochemical; conditions: purified enzyme from M. arginini, substrate L-arginine
T1 construct: Arginine deiminase was purified from the M. arginini cell extract; endogenous in cells; host or cells: Mycoplasma arginini IFO 14476 cells (strain from the Institute for Fermentation, Osaka); enzyme purified in house by three chromatography steps
Procedure: The activity of arginine deiminase can be determined by causing it to produce citrulline using the method reported by Fenske et. al. [J. Bacteriol. 126, 501-510 (1976)], and by measuring the amount of the yields using the method given by Archibald [J. Biol. Chem. 156, 121-142 (1944)].
Specifically, 20 μl of arginine deiminase solution is added to 1.0 ml of 10 mM arginine [dissolved in 0.1M phosphate buffer of pH 7.0], then an enzyme reaction is allowed to take place at 37° C. for 10 minutes, and the reaction is terminated by adding 1 ml of mixed acid solution (H2 SO4 :H3 PO4 =1:3). Then, the resultant reactive solution is added with 25 μl of 3% aqueous diacetylmonooxim solution, heated at 100° C. for 20 minutes under a light-shielded condition, left to cool under a room temperature for 30 minutes, and then the amount of the citrulline yield is measured quantitatively by measuring the absorbence at 490 nm. The activity of arginine deiminase producing 1 μmol of citrulline in one minute is defined as 1 unit.
v) Km value and Vmax value
By the Lineweaver-Burk plot analysis Km and Vmax were determined as 0.2 mM and 50 U/mg, respectively.

[2] = system: M. arthritidis arginine deiminase; conditions: literature value, Table 1; substrate L-arginine; cited from earlier work
[3] = system: M. hominis arginine deiminase; conditions: literature value, Table 1; substrate L-arginine; cited from earlier work
[4] = system: Strepto- faecalis arginine deiminase; conditions: literature value, Table 1; substrate L-arginine; cited from earlier work

T1 sequence (P23793 whole entry): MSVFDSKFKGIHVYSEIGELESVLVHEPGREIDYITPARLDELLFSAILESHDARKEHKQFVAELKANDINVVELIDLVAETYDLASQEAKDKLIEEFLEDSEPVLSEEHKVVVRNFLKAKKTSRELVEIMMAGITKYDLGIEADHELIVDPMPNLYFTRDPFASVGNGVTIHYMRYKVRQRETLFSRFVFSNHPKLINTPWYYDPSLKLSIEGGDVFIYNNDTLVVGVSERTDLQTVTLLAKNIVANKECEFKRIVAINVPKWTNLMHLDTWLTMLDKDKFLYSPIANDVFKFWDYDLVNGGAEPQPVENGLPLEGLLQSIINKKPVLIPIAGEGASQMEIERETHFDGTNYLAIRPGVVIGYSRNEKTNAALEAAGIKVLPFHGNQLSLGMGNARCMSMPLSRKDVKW

For `N=C(N)NCCC[C@H](N)C(=O)O` [L-arginine], the Km [1] is listed as about 200 µM, the Km [2] is listed as 4 µM and the Km [3] is listed as 100 to 400 µM. For the same compound, the Km [4] was 150 µM.
